Experimental data as given in patent US20100256147A1, “BIARYL ACETAMIDE DERIVATIVES AS MODULATORS OF THE KINASE CASCADE FOR THE TREATMENT OF HEARING LOSS, OSTEOPOROSIS AND CELL PROLIFERATION DISORDERS” (priority 2007, published 2010).

What was measured:
Format in all cases: cell-based
HT29 = test: BrdU cell growth inhibition, HT29; conditions: Homo sapiens, HT-29; HT29 cells; read-out: HT29 GI 50
Procedure: (§1) The GI50s for the compounds of the invention is assayed as described herein.
The HT29 cell line is a NCI standard human colon carcinoma cell line. HT-29 cells are obtained from ATCC at passage 125 and are used for inhibition studies between passage 126-151. HT29 cells are routinely cultured in McCoy's 5A medium supplemented with Fetal Bovine Serum (1.5% v/v) and L-glutamine (2 mM).
In the BrdU Assay for cell growth inhibition, quantitation of cell proliferation is based on the measurement of BrdU incorporation during DNA synthesis. The Cell Proliferation ELISA BrdU assay kit (colorimetric) is obtained from Roche Applied Science and performed as per vendor instructions.
The growth inhibition (G1) is determined from the formula G1=(T0−Tr×100/T0−CONn) where T0 is the BrdU growth of untreated cells at time “0”, Tn, is the BrdU growth of treated cells at day “n” and CONn is the control BrdU growth of control cells at day “n”. The GI50 is extrapolated and the data plotted using XL-Fit 4.0 software. […]
(§2) Seeded 96 well plates are allowed to attach overnight for 18-24 hours, either at 37° C. and 5% CO2 for HT-29 or at 37° C. and 10% CO2 for c-Src 3T3. Approx 18-24 hours after seeding, the initial growth of cells (T0) is determined for untreated cells using the BrdU assay. […] Plates are assayed for BrdU and the data is analyzed as above for GI50.

Ba/F3-JAK2 = Ba/F3-JAK2 cell growth inhibition; conditions: Ba/F3-JAK2 cells
c-Src527F/NIH 3T3 = test: BrdU cell growth inhibition, c-Src527F/NIH 3T3; conditions: Mus musculus, NIH3T3; c-Src527F/NIH 3T3 cells; read-out: c-Src527F/NIH 3T3 GI 50
Procedure: as §1
The c-Src 3T3 is a mouse fibroblast NIH 3T3 normal cell line that has been transfected with a point-mutant of human c-Src wherein tyrosine 527 has been converted to a phenylalanine. This mutation results in “constitutively active” c-Src because phosphorylation on tyrosine 527 results in auto-inhibition of Src by having it fold back on its own SH2 domain. With a Phe there, this phosphorylation can't occur and therefore auto-inhibition can't occur. Thus, the always fully active mutant Src then converts the normal mouse fibroblasts into rapidly growing tumor cells. […]
In the BrdU Assay for cell growth inhibition, quantitation of cell proliferation is based on the measurement of BrdU incorporation during DNA synthesis. […]
The growth inhibition (G1) is determined from the formula G1=(T0−Tr×100/T0−CONn) where T0 is the BrdU growth of untreated cells at time “0”, Tn, is the BrdU growth of treated cells at day “n” and CONn is the control BrdU growth of control cells at day “n”. […]
as §2

Ba/F3-JAK3 = Ba/F3-JAK3 cell growth inhibition; conditions: Ba/F3-JAK3 cells
[1] = system: known Src protein substrates; test: Phosphorylation of Src substrates in c-Src (527F) transformed NIH3T3 cells
Procedure: (§3) Compounds of the invention may be Src signaling inhibitors that bind in the Src peptide substrate site. The activity of various compounds of the invention has been studied in c-Src (527F, constitutively active and transforming) transformed NIH3T3 cells and in human colon cancer cells (HT29).
(§4) HT29 (colon cancer) and c-Src527F/NIH-3T3 (Src transformed) cell lines are treated with a compound of the invention or with AstraZeneca's ATP competitive Src inhibitor AZ28 (KX2-328). AZ28 serves as a positive comparator to show what a validated Src inhibitor should do in these assays. After treatment with compound, cells are lysed, subjected to PAGE and probed with a battery of antibodies. […] In addition, off-target protein phosphorylation is also investigated. Further, induction of apoptosis is evaluated via Caspase 3 cleavage. Multiple doses of each compound are tested because the trends in response to increasing drug concentration are the most reliable indicator of activity.
(§5) A dose response curve is generated using the GI50 for the compounds of the invention in each of the two cell lines as the 1× concentration. […] The same range of multiples of the GI50 for AZ28 in these two cell lines are run as a comparison.

[2] = system: known Src protein substrates; test: Phosphorylation of Src substrates in HT29 cells; conditions: human colon cancer cells (HT29)
Procedure: as §3, §4, §5

ACHN = test: Tumor growth inhibition, ACHN; conditions: Homo sapiens, read-out: Dasatinib GI50, renal cell adenocarcinoma
Caki-2 = test: Tumor growth inhibition, Caki-2; conditions: Homo sapiens, read-out: Dasatinib GI50; Caki-2, clear cell carcinoma
Hep 3B = test: MTT growth inhibition, Hep 3B; conditions: Homo sapiens, Hep3B, 8.0×10^3 cells/wells, 1.5% FBS, 78 Hr, normalized response data
Procedure: (§6) Samples of the test compounds are formulated in 100% DMSO to obtain 20 mM stock solutions; stored @ 4° C. The IC50s and IC80s are determined as described below. Huh7, WRL-68, PLC/PRF/5, Hep 3B, and Hep G2 human cancer lines are routinely cultured and maintained in a basal medium containing 2% FBS @ 37° C., 5% CO2. Cells are seeded @ 4.0×10^3/190 μl and 8.0×10^3/190 μl per well of a 96-well plate. The assay medium is basal medium/1.5% FBS. […] The test article dilutions are prepared as follows: 20 mM stock solution samples are diluted serially in basal medium/1.5% FBS using 1:3 dilutions, yielding 20× concentrations; 131 μM to 0.24 nM range. 10 μL of 20× dilutions are added to the appropriate wells (n=3) containing 190 μL cancer cell line; 6561 nM to 0.012 nM range of final concentrations. Vehicle control contains cells, no sample. Medium control contains cells, no sample, 0.03% DMSO (highest DMSO concentration present in samples). The treated cells are incubated for 72 hours at 37° C., 5% CO2. On day 3, 10 μL MTT (5 mg/mL) are added to each well. Cells are incubated in the presence of MTT for 4 hours @ 37° C., 5% CO2. 90 μL 10% SDS(+HCl) is added to each well to lyse cells and solubilize formazan.

769-P = test: Tumor growth inhibition, 769-P; conditions: Homo sapiens, read-out: Dasatinib GI50, renal cell adenocarcinoma
HuH7 = test: MTT growth inhibition, HuH7; conditions: Homo sapiens, Huh-7, 8.0×10^3 cells/wells, 1.5% FBS, 78 Hr, normalized response data
Procedure: as §6, with “formazan. […] OD570 measurements are taken, e.g., using BioTek Synergy HT multiplatform microplate reader. Growth inhibition curves IC50s and IC80s are determined using GraphPad Prism 5 statistical software.” for “formazan.”

786-O = test: Tumor growth inhibition, 786-O; conditions: Homo sapiens, 786-0, read-out: Dasatinib GI50, renal cell adenocarcinoma
PLC/PRF/5 = test: MTT growth inhibition, PLC/PRF/5; conditions: Homo sapiens, 8.0×10^3 cells/wells, 1.5% FBS, 78 Hr, normalized response data
Procedure: as §6

Molecule `C[C@@H](NC(=O)Cc1ccc(-c2ccc(OCCN3CCOCC3)cc2F)nc1)C1CCCCC1` has a GI50 (HT29) of 1060 nM, an IC50 (Ba/F3-JAK2) of 2080 nM and a GI50 (c-Src527F/NIH 3T3) of 1230 nM. It also gave an IC50 (Ba/F3-JAK3) of 1290 nM.

With `O=C(Cc1ccc(-c2ccc(OCCN3CCOCC3)cc2)cn1)NCc1ccccc1` [KX2-391] the “phosphorylation level of known Src protein substrates” value [1] was “reduce the phosphorylation level of known Src protein substrates in a dose-dependent fashion” and the “phosphorylation level of known Src protein substrates” value [2] was “reduce the phosphorylation level of known Src protein substrates in a dose-dependent fashion”.

`O=C(Cc1ccc(-c2ccc(OCCN3CCOCC3)cc2F)nc1)NCCC1CCCC1` showed a GI50 (HT29) of 1230 nM, an IC50 (Ba/F3-JAK2) of 1320 nM and a GI50 (c-Src527F/NIH 3T3) of 1160 nM. The IC50 (Ba/F3-JAK3) was 1200 nM.

`Cc1nc(Nc2ncc(C(=O)Nc3c(C)cccc3Cl)s2)cc(N2CCN(CCO)CC2)n1` [Dasatinib] was tested, and the GI50 (ACHN) was 21.1 nM, the GI50 (Caki-2) was 14.2 nM and the IC80 (Hep 3B) was > 50000 nM. The GI50 (769-P) was 46.3 nM, the IC50 (HuH7) was 1970 nM and the IC80 (HuH7) was 7140 nM. The GI50 (786-O) was 2010 nM and the IC80 (PLC/PRF/5) was > 50000 nM.
